These results are taken from patent publication US5089515A, “Lipid-peroxide formation inhibiting composition and novel compounds useful therefor” (priority 1986, dated 1992).

Entries after “also recorded” stand apart in the source; their conditions may differ.

For one assay, the system named is lipid peroxidation due to active oxygen species.
Assay: not given
To be noted: prior art; cited from earlier work.
For the compound vitamin E, the “inhibition of lipid peroxidation” value is on record as “known to inhibit lipid peroxidation due to active oxygen species; also recorded: not sufficient to inhibiting lipid peroxidation”.

Another assay relates to cerebral ischemia model. Briefly: Cerebral protective activity in cerebral ischemia model. The class given is in vivo, Wistar-strain male rat. The conditions noted are these: 10 mg/kg into the duodenum, 30 minutes before 10 minutes ischemia; after release of ischemia. As to the method: (2) Cerebral protective activity in cerebral ischemia model
A Wistar-strain male rat weighing about 400 g was intramuscularly dosed with 0.6 mg of d-tubocurarine to immobilize. After inserting a trachea cannula, the head was fixed to the stereofaxic apparatus under artificial respiration. After incising the head skin and drilling the cranial bone, an electrode for recording electroencephalogram was placed on the surface of the left frontal cortex. After fixing the electrode to the cranial bone using dental cement, the rat was supported in the rear position. Then, a cannula for measuring the blood pressure was intubated to the left femoral artery and another cannula for additionally dosing d-tubocurarine was also intubated to the left femoral vein. The heart rate was measured by a cardiotachometer triggered by pulse pressure.
After reaching the stable state of several parameters including blood pressure, heart rate and electroencephalogram, the effective ingredient of the present invention which was previously prepared so as to form suspension of 1 ml/kg with 1% tragacanth gum solution was directly dosed into the duodenum in a dose of 10 mg/kg at 30 minutes before cerebral ischemia loading. The control group were dosed by the same volume of 1% tragacanth gum solution only.
The blood pressure, heart rate and electroencephalogram were monitored 10 to 20 minutes after drug dosing with the multipurpose polygraph (Model RM-85, made by Nihon Kohden Co., Ltd.), and operation was made according to the following procedure:
Firstly, the ribs were freed from the left costal cartilage and the chest was opened. Then, 30 minutes after drug dosing, the left common carotid artery, left vertebral artery and brachiocephalic artery were simultaneously plugged at the origin of the arteries with artery clips to stop the blood flow into the brain for 10 minutes.
The resumption of blood flow into the brain was conducted by simultaneously releasing the artery clips which were attached to said positions.
The cerebral protective activity of the drug against the disturbance after the release of cerebral ischemic load was investigated by the restoration of electroencephalogram.
During the experiment, the rectal temperature was maintained at 37-38° C. with a heating pad and continuously recorded on the recorder along with electroencephalogram, femoral blood pressure and heart rate.
Take `O=C1CC(c2cccnc2)=NN1c1ccccc1` [Compound No. 1, 1-phenyl-3-(3-pyridyl)-2-pyrazolin-5-one]: the restoration of electroencephalogram entry is recorded as “the electroencephalogram appeared with restoration during the releasing”.

For `O=C1CC(Cc2cccnc2)=NN1c1ccccc1` [compound 24], the restoration of electroencephalogram result is “the electroencephalogram appeared with restoration during the releasing”.

Staying with this assay, now noted: 10 mg/kg into the duodenum; after release of ischemia.
`O=C1CC(c2cccnc2)=NN1c1ccccc1` [Compound No. 1, 1-phenyl-3-(3-pyridyl)-2-pyrazolin-5-one]: the “function of the pulsation system” value was “the function of the pulsation system was activated and normalized”.

Take `O=C1CC(Cc2cccnc2)=NN1c1ccccc1` [compound 24]: the “function of the pulsation system” value was “the function of the pulsation system was activated and normalized”.

Still in this assay, the particulars now being: 10 mg/kg into the duodenum; control died 75 minutes in average from blood reflow.
On to `O=C1CC(c2cccnc2)=NN1c1ccccc1` [Compound No. 1, 1-phenyl-3-(3-pyridyl)-2-pyrazolin-5-one], for which the “survival period of time” value was “the survival period of time of the animals of the group was clearly extended”.

As for `O=C1CC(Cc2cccnc2)=NN1c1ccccc1` [compound 24], the “survival period of time” value was “the survival period of time of the animals of the group was clearly extended”.

The test system of the next assay is lipid-peroxide formation in cerebral homogenate. Description: Lipid-peroxide formation inhibiting activity (TBA method, cerebral homogenate). The class given is biochemical, Wistar strain male rat. The conditions noted are these: at 100 μM; rat cerebral homogenate, 30 minutes at 37° C. The procedure:
(1) Lipid-peroxide formation inhibiting activity
(a) Preparation of cerebral homogenate
[…]. Then, cerebral irrigation was made with ice-cold physiological saline solution buffered with 50 mM phosphoric acid (pH value of 7.4, hereinafter referred to as "PBS"), and the whole brain was extracted. After removing the cerebellum, the cerebrum was weighed in the wet state, added with PBS of 9 times the weight and homogenized in ice-cold water with a teflon homogenizer. The cerebral homogenate was centrifuged at […] and 2200 rpm for 10 minutes, and 0.3 ml of the supernatant was partitioned into a ground stoppered light-resistant test tube to prepare a cerebral homogenate to be used for drug evaluation.
(b) Evaluation of test drug
The cerebral homogenate which was prepared by the above procedure (a) was added with 0.6 ml of PBS and 10 μl of ethanol solution which contained the test drug of […] in final concentration and incubated for 30 minutes in a water bath at 37° C. Then, the mixture was added with 200 μl of aqueous 35% solution of perchloric acid and centrifuged at 4° C and 2,600 rpm for 10 minutes to collect the supernatant.
In addition, 10 μl of ethanol (blank) was added instead of the test drug.
(c) Determination of lipid peroxide
The supernatant of 0.1 ml which was obtained in the above procedure (b) was added with 0.2 ml of aqueous 8.1% sodium dodecyl sulfate solution, 1.5 ml of 20% acetic acid buffer solution (pH of 3.5), 1.5 ml of 0.67% 2-thiobarbituric acid solution and 0.7 ml of distilled water and mixed. The mixed solution was heated for 60 minutes in boiling water bath, quenched with ice-cold water and added with 1.0 ml of distilled water and 5.0 ml of a mixture solution of pyridine and butanol (1:15). After 30 seconds of shaking, the mixed solution was centrifuged at 3,000 rpm for 10 minutes, and the supernatant was collected as the sample for lipid peroxide measurement.
In addition, 0.1 ml of Lipoperoxide-test reagent (Wako Pure Chemicals Co., Ltd.: 1,1,3,3-tetraethoxypropane is contained by […]) was added instead of the cerebral homogenate obtained in the above procedure (b) to prepare the reference solution
The amount of lipid peroxide was measured at a excitation wavelength of 515 nm and a fluorescence wavelength of 550 nm using a fluoro-spectrophotometer (Model 204, made by Hitachi, Ltd.) and calculated by the following formula: [formula] where, F=fluorescence intensity of the reference solution
f=fluorescence intensity of the test drug.
Then, the inhibition rates of the test drugs at each concentration were obtained for the TBA value of the blank under (b) above and IC value were calculated by the method of least square means.
With `O=C(O)Cc1ccc(N2N=C(c3cccnc3)CC2=O)cc1` [Compound No. 9, 4-[3-(3-pyridyl)-5-oxo-2-pyrazolin-1-il] phenylacetic acid], the “Percent inhibition at 100 μM” value came out at 2.6%.

`O=C(O)c1ccc(N2N=C(Cn3ccnc3)CC2=O)cc1` [Compound No. 49]: the “Percent inhibition at 100 μM” value is 12.9%.

Regarding `O=C(O)c1ccc(N2N=C(c3cccnc3)CC2=O)cc1` [compound 7], the “Percent inhibition at 100 μM” value is 1.9%.

Turning to `O=C1CC(c2cccnc2)=NN1c1ccccn1` [compound 12], the “Percent inhibition at 100 μM” value came to 43.2%.

As for `CCC1C(=O)N(C2CCCCC2)N=C1c1cccnc1` (stereo not drawn) [compound 21], the “Percent inhibition at 100 μM” value stood at 1.0%.

Turning to `CCCC1C(=O)N(C2CCCCC2)N=C1c1cccnc1` (stereo not drawn) [compound 23], the “Percent inhibition at 100 μM” value was 46.1%.

In the case of `O=C(O)c1ccc(N2N=C(Cc3cccnc3)CC2=O)cc1` [compound 29], the “Percent inhibition at 100 μM” value came out at 17.6%.

`O=C1CC(Cn2ccnc2)=NN1C1CCCCC1` [compound 40]: the “Percent inhibition at 100 μM” value was 39.4%.

For the compound `COc1ccc(N2N=C(Cn3ccnc3)CC2=O)cc1` [compound 43], the “Percent inhibition at 100 μM” value is 30.2%.

Turning to `CCC1C(=O)N(c2ccccc2)N=C1Cn1ccnc1` (stereo not drawn) [compound 52], the “Percent inhibition at 100 μM” value is on record as 4.3%.

Take `CC(C)C1C(=O)N(c2ccccc2)N=C1Cn1ccnc1` (stereo not drawn) [compound 55]: the “Percent inhibition at 100 μM” value was 27.3%.

The same assay, now with this note: rat cerebral homogenate, incubated 30 minutes at 37° C.
Turning to `O=C1CC(c2cccnc2)=NN1c1ccccc1` [Compound No. 1, 1-phenyl-3-(3-pyridyl)-2-pyrazolin-5-one], inhibition was half-maximal at 23.6 µM (IC50).

For the compound `COc1ccc(N2N=C(c3cccnc3)CC2=O)cc1` [Compound No. 4], the IC50 was determined as 37 µM.

The compound `CCOc1ccc(N2N=C(c3cccnc3)CC2=O)cc1` [Compound No. 5] registered a concentration for half-maximal inhibition (IC50) of 12.9 µM.

In turn, `O=C1CC(c2cccnc2)=NN1c1ccc(O)cc1` [Compound No. 10, 1-(4-hydroxyphenyl)-3-(3-pyridyl)-2-pyrazolin-5-one] showed an IC50 of 102 µM.

`Cc1ccc(N2N=C(c3cccnc3)CC2=O)cc1` [compound 2]: the midpoint of inhibition, the IC50, lay at 10.3 µM.

`CCc1ccc(N2N=C(c3cccnc3)CC2=O)cc1` [compound 3] registered an IC50 of 4 µM.

Turning to `O=C1CC(c2cccnc2)=NN1c1ccc(Cl)cc1` [compound 6], the IC50 stood at 4.3 µM.

`CCOC(=O)Cc1ccc(N2N=C(c3cccnc3)CC2=O)cc1` [compound 8]: 13.6 µM corresponded to half-maximal inhibition (IC50).

As for `O=C1CC(c2cccnc2)=NN1C1CCCCC1` [compound 11], the IC50 was found to be 16.9 µM.

The compound `O=C1CC(c2cccnc2)=NN1c1nc2ccccc2s1` [compound 13] gave an IC50 of 84.1 µM.

`CC1C(=O)N(c2ccccc2)N=C1c1cccnc1` (stereo not drawn) [compound 14] displayed an IC50 of 38.9 µM.

Compound `Cc1ccc(N2N=C(c3cccnc3)C(C)C2=O)cc1` (stereo not drawn) [compound 15] showed an IC50 of 12.5 µM.

The compound `COc1ccc(N2N=C(c3cccnc3)C(C)C2=O)cc1` (stereo not drawn) [compound 16] came in with an IC50 of 46.3 µM.

Take `CC1C(=O)N(c2ccc(Cl)cc2)N=C1c1cccnc1` (stereo not drawn) [compound 17]: the IC50 was 7.1 µM.

The compound `CC1C(=O)N(C2CCCCC2)N=C1c1cccnc1` (stereo not drawn) [compound 18] returned a 50% inhibitory concentration (IC50) of 29.3 µM.

The compound `CC1C(=O)N(c2ccccn2)N=C1c1cccnc1` (stereo not drawn) [compound 19] gave a 50% inhibitory concentration (IC50) of 12.3 µM.

`CCC1C(=O)N(c2ccccc2)N=C1c1cccnc1` (stereo not drawn) [compound 20] registered an IC50 of 29.4 µM.

Take `CCCC1C(=O)N(c2ccccc2)N=C1c1cccnc1` (stereo not drawn) [compound 22]: the IC50 stood at 28.2 µM.

As to `O=C1CC(Cc2cccnc2)=NN1c1ccccc1` [compound 24], inhibition was half-maximal at 16.4 µM (IC50).

In turn, `Cc1ccc(N2N=C(Cc3cccnc3)CC2=O)cc1` [compound 25] gave an IC50 of 7.4 µM.

In the case of `COc1ccc(N2N=C(Cc3cccnc3)CC2=O)cc1` [compound 26], the concentration for half-maximal inhibition (IC50) came to 23.6 µM.

In the case of `CCOc1ccc(N2N=C(Cc3cccnc3)CC2=O)cc1` [compound 27], the IC50 turned out to be 12.2 µM.

Compound `O=C1CC(Cc2cccnc2)=NN1c1ccc(Cl)cc1` [compound 28] registered an IC50 of 4.1 µM.

`O=C1CC(Cc2cccnc2)=NN1C1CCCCC1` [compound 30] registered an IC50 of 24 µM.

As to `O=C1CC(Cc2cccnc2)=NN1c1ccccn1` [compound 31], it took 6.2 µM to reach half-maximal inhibition (IC50).

The compound `O=C1CC(c2ccco2)=NN1c1ccccc1` [compound 32] displayed an IC50 of 4.3 µM.

`Cc1ccc(N2N=C(c3ccco3)CC2=O)cc1` [compound 33] returned an IC50 of 4.1 µM.

Consider `COc1ccc(N2N=C(c3ccco3)CC2=O)cc1` [compound 34], for which the IC50 is 6.5 µM.

Consider `O=C1CC(c2ccco2)=NN1c1ccc(Cl)cc1` [compound 35], for which the IC50 is 3.7 µM.

`O=C1CC(c2ccco2)=NN1C1CCCCC1` [compound 36] registered a half-inhibitory concentration (IC50) of 8.3 µM.

`O=C1CC(c2ccco2)=NN1c1ccccn1` [compound 37] yielded an IC50 of 15.4 µM.

The compound `O=C1CC(Cn2ccnc2)=NN1c1ccccc1` [compound 38] yielded an IC50 of 60.1 µM.

The compound `Cc1ccc(N2N=C(Cn3ccnc3)CC2=O)cc1` [compound 39] registered an IC50 of 43 µM.

In turn, `Cc1cccc(N2N=C(Cn3ccnc3)CC2=O)c1` [compound 41] displayed an IC50 of 60 µM.

`CCc1ccc(N2N=C(Cn3ccnc3)CC2=O)cc1` [compound 42] registered an IC50 of 24.4 µM.

The compound `O=C1CC(Cn2ccnc2)=NN1c1ccc(Cl)cc1` [compound 44] gave a concentration for half-maximal inhibition (IC50) of 22.7 µM.

`O=C1CC(Cn2ccnc2)=NN1c1ccc(Cl)c(Cl)c1` [compound 45] yielded an IC50 of 11 µM.

Compound `CCOC(=O)Cc1ccc(N2N=C(Cn3ccnc3)CC2=O)cc1` [compound 46] returned an IC50 of 60.5 µM.

The compound `CCOC(=O)c1ccc(N2N=C(Cn3ccnc3)CC2=O)cc1` [compound 47] yielded an IC50 of 35.1 µM.

In turn, `O=C1CC(Cn2ccnc2)=NN1c1ccccn1` [compound 51] registered an IC50 of 51.3 µM.

Compound `CCC1C(=O)N(c2ccc(C)cc2)N=C1Cn1ccnc1` (stereo not drawn) [compound 53] registered an IC50 of 38.2 µM.

`CCC1C(=O)N(c2ccc(Cl)cc2)N=C1Cn1ccnc1` (stereo not drawn) [compound 54] registered an IC50 of 37.8 µM.

For orientation: IC50 means the point on the concentration scale where inhibition reaches its midpoint. Low values mean inhibition by little substance, high ones a need for much substance.
